Measurements from PubChem BioAssay (NCI).
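Tested at 5 concentrations; 48 h exposure; 96-well plates; endpoints linearly interpolated, else capped at highest concentration. At the TGI there is no net growth.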

Key:
Assay in all cases: growth of human tumour cells (NCI), 48 h
CAKI-1 renal = tested on: CAKI-1 renal
U251 CNS = tested on: U251 CNS
CCRF-CEM leukemia = tested on: CCRF-CEM leukemia
RPMI-8226 leukemia = tested on: RPMI-8226 leukemia
A549 NSCLC = tested on: A549 NSCLC
SF-539 CNS = tested on: SF-539 CNS
HOP-92 NSCLC = tested on: HOP-92 NSCLC
EKVX NSCLC = tested on: EKVX NSCLC
SF-268 CNS = tested on: SF-268 CNS
DMS 114 small cell lung = tested on: DMS 114 small cell lung
HOP-18 NSCLC = tested on: HOP-18 NSCLC
SNB-78 CNS = tested on: SNB-78 CNS
SNB-19 CNS = tested on: SNB-19 CNS
SW-620 colon = tested on: SW-620 colon
SK-MEL-2 melanoma = tested on: SK-MEL-2 melanoma
NCI-H522 lung = tested on: NCI-H522 lung
SK-MEL-28 melanoma = tested on: SK-MEL-28 melanoma
NCI-H226 lung = tested on: NCI-H226 lung
UACC-62 melanoma = tested on: UACC-62 melanoma
ACHN renal = tested on: ACHN renal
OVCAR-4 ovarian = tested on: OVCAR-4 ovarian
M14 melanoma = tested on: M14 melanoma
OVCAR-3 ovarian = tested on: OVCAR-3 ovarian
OVCAR-5 ovarian = tested on: OVCAR-5 ovarian
NCI-H23 lung = tested on: NCI-H23 lung
UACC-257 melanoma = tested on: UACC-257 melanoma
M19-MEL melanoma = tested on: M19-MEL melanoma
HCT-15 colon = tested on: HCT-15 colon
HOP-62 NSCLC = tested on: HOP-62 NSCLC
KM20L2 colon = tested on: KM20L2 colon
HCT-116 colon = tested on: HCT-116 colon
SK-OV-3 ovarian = tested on: SK-OV-3 ovarian
DMS 273 small cell lung = tested on: DMS 273 small cell lung
MALME-3M melanoma = tested on: MALME-3M melanoma
NCI-H460 lung = tested on: NCI-H460 lung
OVCAR-8 ovarian = tested on: OVCAR-8 ovarian
A498 renal = tested on: A498 renal
LOX IMVI melanoma = tested on: LOX IMVI melanoma
RXF-631 renal = tested on: RXF-631 renal
LXFL 529 NSCLC = tested on: LXFL 529 NSCLC
SF-295 CNS = tested on: SF-295 CNS
SNB-75 CNS = tested on: SNB-75 CNS
MOLT-4 leukemia = tested on: MOLT-4 leukemia
COLO 205 colon = tested on: COLO 205 colon
UO-31 renal = tested on: UO-31 renal
786-0 renal = tested on: 786-0 renal
HT29 colon = tested on: HT29 colon
RXF 393 renal = tested on: RXF 393 renal
K-562 leukemia = tested on: K-562 leukemia
HL-60(TB) leukemia = tested on: HL-60(TB) leukemia
SN12C renal = tested on: SN12C renal
XF 498 CNS = tested on: XF 498 CNS
TK-10 renal = tested on: TK-10 renal
SK-MEL-5 melanoma = tested on: SK-MEL-5 melanoma
KM12 colon = tested on: KM12 colon
IGROV1 ovarian = tested on: IGROV1 ovarian
DLD-1 colon = tested on: DLD-1 colon
HCC-2998 colon = tested on: HCC-2998 colon

C[C@]12CCC3[C@@H](CC[C@@H]4c5nonc5CC[C@]34C)C1CCC2=O (stereo not given in full)
TGI (CAKI-1 renal): 95.5 µM
TGI (U251 CNS): 32.5 µM
TGI (CCRF-CEM leukemia): 61.3 µM
TGI (RPMI-8226 leukemia): 44 µM
TGI (A549 NSCLC): 92.4 µM
TGI (SF-539 CNS): 45.9 µM
TGI (HOP-92 NSCLC): 51.5 µM
TGI (EKVX NSCLC): 83.1 µM
TGI (SF-268 CNS): > 100 µM
TGI (DMS 114 small cell lung): 53.9 µM
TGI (HOP-18 NSCLC): > 100 µM
TGI (SNB-78 CNS): 99.7 µM
TGI (SNB-19 CNS): > 100 µM
TGI (SW-620 colon): > 100 µM
TGI (SK-MEL-2 melanoma): 56.5 µM
TGI (NCI-H522 lung): 50.1 µM
TGI (SK-MEL-28 melanoma): 63.8 µM
TGI (NCI-H226 lung): 62.7 µM
TGI (UACC-62 melanoma): 52.3 µM
TGI (ACHN renal): 77.7 µM
TGI (OVCAR-4 ovarian): 84 µM
TGI (M14 melanoma): 37 µM
TGI (OVCAR-3 ovarian): 40.4 µM
TGI (OVCAR-5 ovarian): > 100 µM
TGI (NCI-H23 lung): 92.5 µM
TGI (UACC-257 melanoma): 40.4 µM
TGI (M19-MEL melanoma): 52.8 µM
TGI (HCT-15 colon): > 100 µM
TGI (HOP-62 NSCLC): > 100 µM
TGI (KM20L2 colon): > 100 µM
TGI (HCT-116 colon): 31.7 µM
TGI (SK-OV-3 ovarian): > 100 µM
TGI (DMS 273 small cell lung): 47.1 µM
TGI (MALME-3M melanoma): 52.6 µM
TGI (NCI-H460 lung): 39.7 µM
TGI (OVCAR-8 ovarian): > 100 µM
TGI (A498 renal): 68.2 µM
TGI (LOX IMVI melanoma): 39.5 µM
TGI (RXF-631 renal): > 100 µM
TGI (LXFL 529 NSCLC): 59.8 µM
TGI (SF-295 CNS): 79.3 µM
TGI (SNB-75 CNS): 93.6 µM
TGI (MOLT-4 leukemia): 61 µM
TGI (COLO 205 colon): 33.3 µM
TGI (UO-31 renal): 39 µM
TGI (786-0 renal): 64.3 µM
TGI (HT29 colon): 41.1 µM
TGI (RXF 393 renal): 78.3 µM
TGI (K-562 leukemia): > 100 µM
TGI (HL-60(TB) leukemia): 38.9 µM
TGI (SN12C renal): 47.3 µM
TGI (XF 498 CNS): 44.4 µM
TGI (TK-10 renal): > 100 µM
TGI (SK-MEL-5 melanoma): 31.4 µM
TGI (KM12 colon): 50.2 µM
TGI (IGROV1 ovarian): > 100 µM

COc1cc(C2C(C(=O)O)=C(CO)Oc3cc4c(cc32)OCO4)cc(OC)c1OC (stereo not given)
TGI (CAKI-1 renal): > 100 µM
TGI (U251 CNS): > 100 µM
TGI (CCRF-CEM leukemia): > 100 µM
TGI (RPMI-8226 leukemia): > 100 µM
TGI (A549 NSCLC): > 100 µM
TGI (DLD-1 colon): > 100 µM
TGI (HOP-92 NSCLC): > 100 µM
TGI (EKVX NSCLC): > 100 µM
TGI (DMS 114 small cell lung): > 100 µM
TGI (HOP-18 NSCLC): > 100 µM
TGI (SNB-78 CNS): > 100 µM
TGI (SNB-19 CNS): > 100 µM
TGI (SW-620 colon): > 100 µM
TGI (SK-MEL-28 melanoma): > 100 µM
TGI (UACC-62 melanoma): > 100 µM
TGI (ACHN renal): > 100 µM
TGI (OVCAR-4 ovarian): > 100 µM
TGI (M14 melanoma): > 100 µM
TGI (OVCAR-5 ovarian): > 100 µM
TGI (NCI-H23 lung): > 100 µM
TGI (UACC-257 melanoma): > 100 µM
TGI (M19-MEL melanoma): > 100 µM
TGI (HCT-15 colon): > 100 µM
TGI (KM20L2 colon): > 100 µM
TGI (HCT-116 colon): > 100 µM
TGI (SK-OV-3 ovarian): > 100 µM
TGI (DMS 273 small cell lung): > 100 µM
TGI (NCI-H460 lung): > 100 µM
TGI (OVCAR-8 ovarian): > 100 µM
TGI (LOX IMVI melanoma): > 100 µM
TGI (RXF-631 renal): > 100 µM
TGI (SF-295 CNS): > 100 µM
TGI (SNB-75 CNS): > 100 µM
TGI (MOLT-4 leukemia): > 100 µM
TGI (COLO 205 colon): > 100 µM
TGI (UO-31 renal): > 100 µM
TGI (HT29 colon): > 100 µM
TGI (RXF 393 renal): > 100 µM
TGI (K-562 leukemia): > 100 µM
TGI (HL-60(TB) leukemia): > 100 µM
TGI (SN12C renal): > 100 µM
TGI (XF 498 CNS): > 100 µM
TGI (TK-10 renal): > 100 µM
TGI (SK-MEL-5 melanoma): > 100 µM
TGI (IGROV1 ovarian): > 100 µM

COC(=O)CCC(NC(=S)N/N=C(\C)c1ccco1)C(=O)OC (stereo not given)
TGI (U251 CNS): > 100 µM
TGI (CCRF-CEM leukemia): > 100 µM
TGI (A549 NSCLC): > 100 µM
TGI (SF-539 CNS): > 100 µM
TGI (DLD-1 colon): > 100 µM
TGI (EKVX NSCLC): > 100 µM
TGI (SF-268 CNS): > 100 µM
TGI (DMS 114 small cell lung): > 100 µM
TGI (HOP-18 NSCLC): > 100 µM
TGI (SNB-78 CNS): > 100 µM
TGI (SNB-19 CNS): > 100 µM
TGI (SW-620 colon): > 100 µM
TGI (SK-MEL-2 melanoma): > 100 µM
TGI (NCI-H522 lung): > 100 µM
TGI (SK-MEL-28 melanoma): > 100 µM
TGI (NCI-H226 lung): > 100 µM
TGI (UACC-62 melanoma): > 100 µM
TGI (ACHN renal): > 100 µM
TGI (OVCAR-4 ovarian): > 100 µM
TGI (M14 melanoma): > 100 µM
TGI (OVCAR-3 ovarian): > 100 µM
TGI (OVCAR-5 ovarian): > 100 µM
TGI (NCI-H23 lung): > 100 µM
TGI (UACC-257 melanoma): > 100 µM
TGI (M19-MEL melanoma): > 100 µM
TGI (HCT-15 colon): > 100 µM
TGI (HOP-62 NSCLC): > 100 µM
TGI (KM20L2 colon): > 100 µM
TGI (HCC-2998 colon): > 100 µM
TGI (HCT-116 colon): > 100 µM
TGI (SK-OV-3 ovarian): > 100 µM
TGI (DMS 273 small cell lung): > 100 µM
TGI (MALME-3M melanoma): > 100 µM
TGI (NCI-H460 lung): > 100 µM
TGI (OVCAR-8 ovarian): > 100 µM
TGI (A498 renal): > 100 µM
TGI (LOX IMVI melanoma): > 100 µM
TGI (RXF-631 renal): > 100 µM
TGI (LXFL 529 NSCLC): > 100 µM
TGI (SF-295 CNS): > 100 µM
TGI (SNB-75 CNS): > 100 µM
TGI (COLO 205 colon): > 100 µM
TGI (UO-31 renal): > 100 µM
TGI (786-0 renal): > 100 µM
TGI (HT29 colon): > 100 µM
TGI (RXF 393 renal): > 100 µM
TGI (K-562 leukemia): > 100 µM
TGI (HL-60(TB) leukemia): > 100 µM
TGI (SN12C renal): > 100 µM
TGI (XF 498 CNS): > 100 µM
TGI (TK-10 renal): > 100 µM
TGI (SK-MEL-5 melanoma): > 100 µM
TGI (KM12 colon): > 100 µM
TGI (IGROV1 ovarian): > 100 µM
